# In patent US9266829B2, “Quinone compounds and their uses for the treatment of cancer” (Onco-NX Limited, priority 2012, dated 2016):
# Where “and” joins values, the source holds several entries; their conditions need not be identical. Equal entries are not always repeated. Where two headings read alike, the source gives them in different places.
# Columns and labels:
# MDA NQ01 = assay: IC50 by MTT assay on NQ01 cells; assay type: cell-based, human; conditions: for MDA468 to NQ01 differential: ratio of IC50 values
# MDA468 = assay: IC50 by MTT assay on MDA468 cells; assay type: cell-based, human
# physchem [1] = assay type: physicochemical; conditions: buffer, pH 7
# physchem [2] = assay type: physicochemical; conditions: buffer, pH 7.4
# Protocol: The stability of esters and their hydrolysis products was measured in solution. (50 μM Es5 in Tris buffer (0.1 mol dm^−3) at pH 7.4). Samples were taken at timed intervals up to 24 hours and analysed by HPLC. The detection wavelength was 330 nm. Chromatographic analysis was carried out by isocratic elution with 30:70 MeOH: Tris buffer (0.1 mol dm^−3, pH 7.4), at 1 ml min^−1. The chromatographic separation of the drug was achieved using a Hypersil ODS column with 250 mm×4.6 mm I.D.
# MDA-MB-468-MOCK = assay: In vivo hollow fibre assay, MDA-MB-468-MOCK; conditions: fibres at s.c. site; i.p. dosing days 3-6; nude mice
# Protocol: (§1) The activity of Es5 (4.65) was evaluated in vivo against 3 cancer cell lines H460, MDA-MB-468-NQ01 and MDA-MB-468-MOCK using the in vivo hollow fibre assay (HFA), with fibres implanted at both intraperitoneal (i.p.) and subcutaneous (s.c.) sites. Es5 and the control agent Doxorubicin were administered as multiple doses by intraperitoneal injection (i.p.) on days 3, 4, 5 & 6 at 0.5 mg/kg/day and 2.5 mg/kg/day respectively.
# (§2) Three human tumour cell lines were selected for analysis: H460 NSCLC (from ICT) and two breast carcinoma lines MDA-MB-468-NQ01 and MDA-MB-468-MOCK (both supplied by Onco-NX). Cells were cultured in RPMI 1640 cell culture medium supplemented with 1 mM sodium pyruvate, 2 mM L-glutamine and 10% foetal bovine serum (all from Sigma), and maintained as monolayer cultures at 37° C. in a humidified 5% CO2 environment.
# Female Balb/C immunodeficient nude mice aged 6-8 weeks were used (Harlan UK, Blackthorn, UK). Mice were kept in cages housed in isolation cabinets in an air-conditioned room with regular alternating cycles of light and darkness. They received Teklad 2018 diet (Harlan, Blackthorn, UK) and water ad libitum. […]
# (§3) Mice were sacrificed on day 7 post-implantation, fibres removed, and cell survival analysed using a modified MTT assay, comparing absorbances seen for the treated groups with the corresponding untreated control group. […]
# MDA-MB-468-NQ01 = assay: In vivo hollow fibre assay, MDA-MB-468-NQ01; design: species or system mice
# Protocol: as §1, §2
# (§4) Female Balb/C immunodeficient nude mice aged 6-8 weeks were used (Harlan UK, Blackthorn, UK). Mice were kept in cages housed in isolation cabinets in an air-conditioned room with regular alternating cycles of light and darkness. They received Teklad 2018 diet (Harlan, Blackthorn, UK) and water ad libitum. All animal procedures were carried out under a project licence issued by the UK Home Office and UKCCCR guidelines were followed throughout.
# Cells were loaded into sterilised colour-coded PVDF Spectra/Por hollow fibres (HF) (Spectrum Medical Inc, Houston, Tex., USA). Briefly cells were harvested and resuspended in cell culture medium at the required cell density. This preparation was then loaded into the HF and the ends were clamped and heat-sealed. The HF was then cut into 1.5 cm lengths which were again heat-sealed at both ends, and then transferred to 6-well plates containing medium before implantation for the in vivo experiments, or were incubated at 37° C. in a humidified 5% CO2 environment for varying times before processing using the modified MTT assay as described below.
# For the in vivo experiments, under brief inhalation anaesthesia (2% isoflurane), one loaded hollow fibre for each of the cell lines was transplanted intraperitoneally or subcutaneously on the dorsal flank of each mouse and the mice were allowed to recover. Each group consisted of 6 mice and the implantation day was termed ‘day 0’.
# For assessment of the therapeutic response of Es5 (4.65), on days 3, 4, 5 & 6 mice were treated with Es5 (4.65) at 0.5 mg/kg/day or Doxorubicin at 2.5 mg/kg/day.
# Mice were sacrificed on day 7 post-implantation, fibres removed, and cell survival analysed using a modified MTT assay, comparing absorbances seen for the treated groups with the corresponding untreated control group. Statistical analysis was carried out using a Student's t-test.
# H460 NSCLC = assay: In vivo hollow fibre assay, H460; conditions: fibres at s.c. site; i.p. dosing days 3-6; nude mice
# Protocol: as §1, §2, §4
# Cells were loaded into sterilised colour-coded PVDF Spectra/Por hollow fibres (HF) (Spectrum Medical Inc, Houston, Tex., USA). Briefly cells were harvested and resuspended in cell culture medium at the required cell density. This preparation was then loaded into the HF and the ends were clamped and heat-sealed. […]
# as §3
# recombinant human DTD = recombinant human DTD (Homo sapiens, UniProt P15559); conditions: Beall et al.; Ross et al.; cited from earlier work
# NQ01 cells = assay: Combination index at IC50 with other anti-cancer agents in NQ01 cells; assay type: cell-based, human
# [3] = Stability in aqueous and organic solution
# [4] = Solubility (aqueous and organic)
# MDA468 cells = assay: Combination index at IC50 with other anti-cancer agents in MDA468 cells; assay type: cell-based, human
# [5] = cited from earlier work
# Sequence of recombinant human DTD (P15559 whole entry): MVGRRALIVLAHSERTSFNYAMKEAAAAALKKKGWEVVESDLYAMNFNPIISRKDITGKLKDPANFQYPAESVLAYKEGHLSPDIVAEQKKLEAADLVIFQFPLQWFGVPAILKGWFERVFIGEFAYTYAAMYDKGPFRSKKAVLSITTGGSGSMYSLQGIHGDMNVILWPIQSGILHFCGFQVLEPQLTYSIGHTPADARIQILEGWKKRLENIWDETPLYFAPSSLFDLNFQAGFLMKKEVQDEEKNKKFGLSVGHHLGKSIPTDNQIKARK
compound,measurement,setting,value
O=c1[nH]cc(F)c(=O)[nH]1 [5-fluorouracil],IC50,"MDA NQ01; Homo sapiens, MTT assay",12000 nM
same,IC50,MDA468; Homo sapiens,7960 nM
N.N.[Cl][Pt][Cl] [Cisplatin],IC50,MDA NQ01; MTT assay,570 nM
same,IC50,MDA468,675 nM
[Cl][Co][Cl] [Cobalt chloride],IC50,MDA NQ01; MTT assay,54000 nM
same,IC50,MDA468,35000 nM
COc1cccc(C(=O)OCC2=C(N3CC3)C(=O)C(C)=C(N3CC3)C2=O)c1OC [Compound 4-05],half-life,physchem [1],< 10 min
COc1ccc(OC)c(C(=O)OCC2=C(N3CC3)C(=O)C(C)=C(N3CC3)C2=O)c1 [Compound 4-07],half-life,physchem [1],< 20 min
COc1ccc(C(=O)OCC2=C(N3CC3)C(=O)C(C)=C(N3CC3)C2=O)cc1OC [Compound 4-09],half-life,physchem [1],< 30 min
COc1ccc(C(=O)OCC2=C(N3CC3)C(=O)C(C)=C(N3CC3)C2=O)c(OC)c1 [Compound 4-10],half-life,physchem [1],< 30 min
COc1cccc(OC)c1C(=O)OCC1=C(N2CC2)C(=O)C(C)=C(N2CC2)C1=O [Compound 4-11],half-life,physchem [1],< 30 min
COc1cc(C(=O)OCC2=C(N3CC3)C(=O)C(C)=C(N3CC3)C2=O)cc(OC)c1OC [Compound 4-14],half-life,physchem [1],< 30 min
CC1=C(N2CC2)C(=O)C(COC(=O)c2ccc([N+](=O)[O-])cc2)=C(N2CC2)C1=O [Compound 4-20],half-life,physchem [1],20 min
CC1=C(N2CC2)C(=O)C(COC(=O)C(C)C)=C(N2CC2)C1=O [Compound 4-36],half-life,physchem [1],< 30 min
CCC(=O)OCC1=C(N2CC2)C(=O)C(C)=C(N2CC2)C1=O [Compound 4-38],half-life,physchem [1],20 min
CC1=C(N2CC2)C(=O)C(COC(=O)C(C)(C)C)=C(N2CC2)C1=O [Compound 4-39],half-life,physchem [1],< 30 min
"CC1=C(N2CC2)C(=O)C(CCCO)=C(N2CC2)C1=O [Compound 4-61, 2,5-Bisaziridin-1-yl-3-(3-hydroxypropyl)-6-methyl-1,4-benzoquinone]",half-life at 50 μM,physchem [2],> 1440 min
same,half-life at 50 μM,physchem [1],> 1440 min
same,IC50,"MDA NQ01; Homo sapiens, MTT assay",0.41 nM
same,DT diaphorase enhancement ratio,MDA NQ01; IC50 MDA 468 / IC50 MDA NQO1,41
same,selectivity towards cells that express DT-diaphorase,"MDA NQ01; IC50 values, MTT assay",excellent selectivity
same,IC50,MDA468; Homo sapiens,17 nM
CC(=O)OCCC1=C(N2CC2)C(=O)C(C)=C(N2CC2)C1=O [Compound 4-70],half-life,physchem [1],< 60 min
CC1=C(N2CC2)C(=O)C(CCOC(=O)c2ccccc2)=C(N2CC2)C1=O [Compound 4-71],half-life,physchem [1],< 60 min
"Nc1ccn([C@@H]2O[C@H](CO)[C@@H](O)[C@@H]2O)c(=O)n1 [Cytosine arabinoside (ARA-C), Cytosine arabinoside]",IC50,MDA NQ01; MTT assay,240 nM
same,IC50,MDA468,250 nM
CC(=O)O[C@@]12CO[C@@H]1C[C@H](O)[C@@]1(C)C(=O)[C@H](O)C3=C(C)[C@@H](OC(=O)[C@H](O)[C@@H](NC(=O)OC(C)(C)C)c4ccccc4)C[C@@](O)([C@@H](OC(=O)c4ccccc4)[C@H]21)C3(C)C [Docetaxel],IC50,"MDA NQ01; Homo sapiens, MTT assay",1.88 nM
same,IC50,MDA468; Homo sapiens,1.15 nM
"COc1cccc2c1C(=O)c1c(O)c3c(c(O)c1C2=O)C[C@@](O)(C(=O)CO)C[C@@H]3O[C@H]1C[C@H](N)[C@H](O)[C@H](C)O1 [Doxorubicin, reference compound]","cell survival compared to the untreated control, MDA-MB-468-MOCK, s.c. site",MDA-MB-468-MOCK,did not demonstrate significant efficacy
same,"cell survival compared to the untreated control, MDA-MB-468-NQ01, s.c. site","MDA-MB-468-NQ01; fibres at s.c. site, i.p. dosing days 3-6, nude mice",did not demonstrate significant efficacy
same,efficacy in the NQ01-expressing compared to the Mock MDA-MB-468 cell line,MDA-MB-468-NQ01; hollow fibre assay,little difference
same,"cell survival compared to the untreated control, H460, s.c. site",H460 NSCLC,did not demonstrate significant efficacy
COc1cccc2c1C(=O)c1c(O)c3c(c(O)c1C2=O)C[C@@](O)(C(=O)CO)C[C@@H]3O[C@H]1C[C@H](N)[C@@H](O)[C@H](C)O1 [Epirubicin],IC50,"MDA NQ01; Homo sapiens, MTT assay",27.5 nM
same,IC50,MDA468; Homo sapiens,23.2 nM
"CC1=C(N2CC2)C(=O)C(C)=C(N2CC2)C1=O [MeDZQ, 2,5-diaziridinyl-3,6-dimethyl-1,4-benzoquinone]",effectiveness as a substrate for recombinant human DTD relative to mitomycin C,recombinant human DTD,more than 150 fold
CN(Cc1cnc2nc(N)nc(N)c2n1)c1ccc(C(=O)N[C@@H](CCC(=O)O)C(=O)O)cc1 [Methotrexate],IC50,"MDA NQ01; Homo sapiens, MTT assay",27 nM
same,IC50,MDA468; Homo sapiens,45 nM
CO[C@@]12[C@H](COC(N)=O)C3=C(C(=O)C(C)=C(N)C3=O)N1C[C@@H]1N[C@@H]12 [Mitomycin C],IC50,MDA NQ01; MTT assay,10 nM
same,MDA468 to NQ01 differential,MDA NQ01,~5 fold
same,IC50,MDA468,50 nM
"CC1=C(N2CC2)C(=O)C(CO)=C(N2CC2)C1=O [RH1, 2,5-diaziridiny 1-3-(hydroxymethyl)-6-methyl-1,4-benzoquinone]",Combination index at IC50 with ARA-C in NQ01 cells,NQ01 cells; with ARA-C,1.22 (slight
same,Combination index at IC50 with Cis-platinum in MDA NQ01,NQ01 cells; with Cis-platinum,0.672 (synergy)
same,Combination index at IC50 with Docetaxel in NQ01 cells,NQ01 cells; with Docetaxel,0.864 (slight
same,Combination index at IC50 with Epirubicin in NQ01 cells,NQ01 cells; with Epirubicin,2.09 (antagonism)
same,Combination Index at IC50 with Mitomycin C in NQ01 cells,NQ01 cells; with Mitomycin C,1.2 (slight
same,Combination index at IC50 with cobalt chloride in NQ01 cells,NQ01 cells; with cobalt chloride,0.80 (moderate
same,IC50,MDA NQ01; MTT assay,0.12 nM
same,MDA468 to NQ01 differential,MDA NQ01,> 30 fold
same,"Temperature stability, t90",Temperature stability; 4 C.,4 C. t90 >7 days
same,"Temperature stability, t90",Temperature stability; 40 C.,40 C. t90 2 days
same,"Temperature stability, t1/2",Temperature stability; 55 C.,55 C. t1/2 2 days
same,"Temperature stability, t90",Temperature stability; Ambient,Ambient t90 3 days
same,Stability (aqueous),[3],>7 days
same,Stability (organic),[3]; in words,months
same,Solubility (organic),[4]; DMSO/chloroform,>30 mg/mL
same,Solubility (aqueous),[4]; water,0.5 mg/mL (water)
same,IC50,MDA468,4.41 nM and 3.5 nM
same,Combination index at IC50 with ARC-C in MDA468 cells,MDA468 cells; with ARC-C,1.45 (slight
same,Combination index at IC50 with Cis-platinum in MDA468,MDA468 cells; with Cis-platinum,0.499 (synergy)
same,Combination index at IC50 with Docetaxel in MDA468 cells,MDA468 cells; with Docetaxel,0.850 (slight
same,Combination index at IC50 with Epirubicin in MDA468 cells,MDA468 cells; with Epirubicin,4.81 (strong
same,Combination Index at IC50 with Mitomycin C in MDA468 cells,MDA468 cells; with Mitomycin C,0.577 (synergy)
same,Combination index at IC50 with cobalt chloride in MDA468 cells,MDA468 cells; with cobalt chloride,0.170 (strong
same,"pH stability, t1/2","[5]; pH 4.16, from AAPS PharmSciTech 2007",t1/2 = 0.07 days
same,"pH stability, t1/2","[5]; pH 7.33, from AAPS PharmSciTech 2007",t1/2 = 43.52 days
same,"pH stability, t1/2","[5]; pH 9.82, nearest comparison from AAPS PharmSciTech 2007, 8 (1) Article 16",t1/2 = 0.96 days
CC[C@]1(O)C[C@@H]2CN(CCc3c([nH]c4ccccc34)[C@@](C(=O)OC)(c3cc4c(cc3OC)N(C)[C@H]3[C@@](O)(C(=O)OC)[C@H](OC(C)=O)[C@]5(CC)C=CCN6CC[C@]43[C@@H]65)C2)C1 [Vinblastine],IC50,"MDA NQ01; Homo sapiens, MTT assay",18.3 nM
same,IC50,MDA468; Homo sapiens,16 nM
